Legend:
μ-opioid receptor [1] = target: T1, μ-opioid receptor (Homo sapiens, UniProt P35372); experiment: μ-opioid receptor [35S]GTPγS functional assay, U-2 OS cells; type: biochemical; set-up: expressed in transfected cells; host or cells: U-2 OS; conditions: U-2 OS cells; for EC50: read-out: GTPγS μ EC50; for Emax: relative to DAMGO, read-out: GTPγS μ Emax
μ-opioid receptor [2] = target: T1, μ-opioid receptor; experiment: μ-opioid receptor [35S]GTPγS functional assay, HEK-293 or CHO cells; conditions: for Emax: read-out: GTPγS μ Emax
κ opioid receptor [3] = target: T2, κ opioid receptor (Homo sapiens, UniProt P41145); experiment: biochemical; type: binding; set-up: expressed in transfected cells; host or cells: HEK 293 (in-house membrane prep); conditions: HEK-293 or CHO cells
T2 sequence (P41145 whole entry): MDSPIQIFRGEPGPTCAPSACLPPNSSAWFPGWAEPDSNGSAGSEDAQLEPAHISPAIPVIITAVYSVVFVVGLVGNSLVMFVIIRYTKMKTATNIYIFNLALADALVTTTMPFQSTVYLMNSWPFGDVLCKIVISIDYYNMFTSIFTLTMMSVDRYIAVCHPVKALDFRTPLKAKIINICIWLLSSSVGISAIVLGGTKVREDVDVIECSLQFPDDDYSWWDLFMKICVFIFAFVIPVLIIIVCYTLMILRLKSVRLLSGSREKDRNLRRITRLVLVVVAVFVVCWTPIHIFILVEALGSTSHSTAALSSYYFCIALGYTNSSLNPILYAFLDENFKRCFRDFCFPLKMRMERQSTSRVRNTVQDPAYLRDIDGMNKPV

κ opioid receptor [4] = target: T2, κ opioid receptor; experiment: κ-opioid receptor [35S]GTPγS functional assay, HEK-293 or CHO cells; type: biochemical; set-up: expressed in transfected cells; host or cells: U-2 OS (in-house membranes); conditions: HEK-293 or CHO cells
Protocol: Membranes from recombinant HEK-293 cells, CHO or U-2 OS cells expressing the recombinant human κ opioid receptor (κ) were prepared by lysing cells in ice cold hypotonic buffer (2.5 mM MgCl2, 50 mM HEPES, pH 7.4) (10 mL/10 cm dish) followed by homogenization with a tissue grinder/Teflon pestle. Membranes from a cell line naturally expressing kappa opioid receptors can also be used. Membranes were collected by centrifugation at 30,000×g for 15 min at 4° C. and pellets were resuspended in hypotonic buffer to a final concentration of 1-3 mg/mL. Protein concentrations were determined using the BioRad protein assay reagent with bovine serum albumen as standard. Aliquots of κ receptor membranes were stored at −80° C.
Plates were incubated for 30 min at a temperature of about 25° C. with shaking.

κ opioid receptor [5] = target: T2, κ opioid receptor; experiment: κ-opioid receptor [35S]GTPγS functional assay, U-2 OS cells; type: biochemical; set-up: expressed in transfected cells; host or cells: U-2 OS (in-house membranes); conditions: U-2 OS cells
Protocol: Membranes from recombinant HEK-293 cells, CHO or U-2 OS cells expressing the recombinant human κ opioid receptor (κ) were prepared by lysing cells in ice cold hypotonic buffer (2.5 mM MgCl2, 50 mM HEPES, pH 7.4) (10 mL/10 cm dish) followed by homogenization with a tissue grinder/Teflon pestle. […] Membranes were collected by centrifugation at 30,000×g for 15 min at 4° C. and pellets were resuspended in hypotonic buffer to a final concentration of 1-3 mg/mL. Protein concentrations were determined using the BioRad protein assay reagent with bovine serum albumen as standard. Aliquots of κ receptor membranes were stored at −80° C.

T1 sequence (P35372 whole entry, species assumed): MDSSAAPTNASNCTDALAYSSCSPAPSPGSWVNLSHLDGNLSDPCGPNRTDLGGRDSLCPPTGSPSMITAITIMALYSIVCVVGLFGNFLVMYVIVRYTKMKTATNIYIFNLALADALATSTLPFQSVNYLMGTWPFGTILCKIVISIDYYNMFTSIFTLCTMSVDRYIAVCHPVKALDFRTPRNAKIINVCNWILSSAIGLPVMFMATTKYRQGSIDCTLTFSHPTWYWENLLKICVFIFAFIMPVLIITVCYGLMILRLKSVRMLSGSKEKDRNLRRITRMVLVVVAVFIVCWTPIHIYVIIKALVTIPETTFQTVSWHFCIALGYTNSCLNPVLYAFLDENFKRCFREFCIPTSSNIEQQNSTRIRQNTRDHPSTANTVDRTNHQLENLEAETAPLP

| SMILES | EC50 (μ-opioid receptor [2]) | Emax (μ-opioid receptor [2]) | Ki (κ opioid receptor [3]) | Ki (κ opioid receptor [3]; bound in μM) | further results |
| --- | --- | --- | --- | --- | --- |
| CN1CC[C@]2(C)c3cc(O)ccc3CC1[C@@H]2CC(=O)Nc1ccc(C(=O)O)cc1 [Compound 32, 4-(2-((6S,11R)-8-hydroxy-3,6-dimethyl-1,2,3,4,5,6-hexahydro-2,6-methanobenzo[d]azocin-11-yl)acetamido)benzoic acid] | 0.336 ± 0.0928 µM | 23 ± 1.53% | 12.7 ± 2.09 µM | – | EC50 (μ-opioid receptor [1]): 0.233 ± 0.0582 µM; Emax (μ-opioid receptor [1]): 39.8 ± 2.46% |
| COC(=O)c1cccc([C@@]2(O)C3Cc4ccc(OC)cc4[C@@]2(C)CCN3C)c1 [Compound 64, methyl 3-((6R,11S)-11-hydroxy-8-methoxy-3,6-dimethyl-1,2,3,4,5,6-hexahydro-2,6-methanobenzo[d]azocin-11-yl)benzoate] | > 20 µM | – | 12.4 µM | – | – |
| CN1CC[C@]2(C)c3cc(O)ccc3C[C@@H]1[C@H]2COc1cncc(C(=O)O)c1 [Compound 33, 5-(((2R,6S,11S)-8-hydroxy-3,6-dimethyl-1,2,3,4,5,6-hexahydro-2,6-methanobenzo[d]azocin-11-yl)methoxy)nicotinic acid] | 2.45 ± 0.167 µM | 49 ± 3.67% | 2.84 ± 0.342 µM | – | – |
| COc1ccc2c(c1)[C@@]1(C)CCN(C)C(C2)[C@]1(O)c1cccc(-c2nnn[nH]2)c1 [Compound 66, (6R,11S)-11-(3-(1H-tetrazol-5-yl)phenyl)-8-methoxy-3,6-dimethyl-1,2,3,4,5,6-hexahydro-2,6-methanobenzo[d]azocin-11-ol] | 6.61 ± 0.199 µM | 20.7 ± 1.33% | – | > 20 µM | – |
| CN1CC[C@]2(C)c3cc(O)ccc3CC1C2N(C)C(=O)Nc1ccc(C(=O)O)cc1 (stereo in doubt) [Compound 45, 4-(3-((2R,6R,11S)-8-hydroxy-3,6-dimethyl-1,2,3,4,5,6-hexahydro-2,6-methanobenzo[d]azocin-11-yl)-3-methylureido)benzoic acid] | 3.85 ± 0.839 µM | 17 ± 3.06% | – | > 20 µM | – |
| CN1CC[C@]2(C)c3cc(O)ccc3CC1C2N(C)C(=O)NCCC(=O)O (stereo in doubt) [Compound 68, 3-(3-((2R,6R,11S)-8-hydroxy-3,6-dimethyl-1,2,3,4,5,6-hexahydro-2,6-methanobenzo[d]azocin-11-yl)-3-methylureido)propanoic acid] | 0.55 ± 0.0316 µM | 98 ± 1.73% | 0.799 ± 0.0982 µM | – | – |
| COc1ccc2c(c1)[C@@]1(C)CCN(C)C(C2)[C@@H]1c1cccc(C(=O)O)c1 [Compound 38, 3-((6S,11R)-8-methoxy-3,6-dimethyl-1,2,3,4,5,6-hexahydro-2,6-methanobenzo[d]azocin-11-yl)benzoic acid] | > 20 µM | – | 17.4 ± 5.98 µM | – | – |
| COc1ccc2c(c1)[C@@]1(C)CCN(CC3CC3)[C@H](C2)[C@H]1N(C)CC(=O)O [Compound 73, 2-(((2R,6R,11S)-3-(cyclopropylmethyl)-8-methoxy-6-methyl-1,2,3,4,5,6-hexahydro-2,6-methanobenzo[d]azocin-11-yl)(methyl)amino)acetic acid] | 18.1 ± 2.72 µM | 25 ± 2.52% | – | > 20 µM | – |
| COc1ccc2c(c1)[C@@]1(C)CCN(C)C(C2)[C@@]1(O)c1cccc(C(N)=O)c1 [Compound 67, 3-((6R,11R)-11-hydroxy-8-methoxy-3,6-dimethyl-1,2,3,4,5,6-hexahydro-2,6-methanobenzo[d]azocin-11-yl)benzamide] | > 20 µM | – | – | > 20 µM | – |
| COc1ccc2c(c1)[C@@]1(C)CCN(C)C(C2)[C@]1(O)c1cccc(C(=O)O)c1 [Compound 71, 3-((6R,11S)-11-hydroxy-8-methoxy-3,6-dimethyl-1,2,3,4,5,6-hexahydro-2,6-methanobenzo[d]azocin-11-yl)benzoic acid] | 13 ± 1.14 µM | 23 ± 4.58% | – | > 20 µM | – |
| CN1CC[C@]2(C)c3cc(O)ccc3C[C@@H]1[C@@H]2N(C)C(=O)c1cccc(C(=O)O)c1 [Compound 48, 3-(((2R,6R,11R)-8-hydroxy-3,6-dimethyl-1,2,3,4,5,6-hexahydro-2,6-methanobenzo[d]azocin-11-yl)(methyl)carbamoyl)benzoic acid] | 5.19 ± 0.549 µM | 26 ± 4.16% | – | > 20 µM | – |
| C[C@]12CCN(CC3CC3)[C@H](Cc3ccc(O)cc31)[C@H]2NS(=O)(=O)c1cccc(C(F)(F)F)c1 [Compound 128, N-((2R,6S,11S)-3-(cyclopropylmethyl)-8-hydroxy-6-methyl-1,2,3,4,5,6-hexahydro-2,6-methanobenzo[d]azocin-11-yl)-3-(trifluoromethyl)benzenesulfonamide] | 0.00767 ± 0.00079 µM | 53.5 ± 3.52% | – | – | EC50 (μ-opioid receptor [1]): 0.00018 ± 6.9e-05 µM; Emax (μ-opioid receptor [1]): 47.8 ± 1.25%; EC50 (κ opioid receptor [4]; read-out: GTPγS κ EC50): 0.00035 ± 0.00015 µM; Emax (κ opioid receptor [4]; relative to U69,593): 40.3 ± 2.19%; EC50 (κ opioid receptor [5]; read-out: GTPγS κ EC50): 0.00074 ± 0.00013 µM; Emax (κ opioid receptor [5]; relative to U69,593, read-out: GTPγS κ Emax): 90.7 ± 1.45% |
| CN1CC[C@]2(C)c3cc(O)ccc3CC1C2Nc1ccc(CCS(N)(=O)=O)cc1 (stereo in doubt) [Compound 58, 2-(4-(((2R,6R,11S)-8-hydroxy-3,6-dimethyl-1,2,3,4,5,6-hexahydro-2,6-methanobenzo[d]azocin-11-yl)amino)phenyl)ethanesulfonamide] | 0.751 ± 0.0433 µM | 110 ± 7.55% | 0.336 ± 0.0875 µM | – | – |
| COc1ccc2c(c1)[C@@]1(C)CCN(C)C(C2)[C@@]1(O)c1cccc(-c2nnn[nH]2)c1 [Compound 65, (6R,11R)-11-(3-(1H-tetrazol-5-yl)phenyl)-8-methoxy-3,6-dimethyl-1,2,3,4,5,6-hexahydro-2,6-methanobenzo[d]azocin-11-ol] | 5.06 ± 1.15 µM | 21.7 ± 2.85% | – | > 20 µM | – |
| COc1ccc2c(c1)[C@@]1(C)CCN(C)C(C2)C1N1CCCC1 (stereo partly drawn) [Compound 69, (6R)-8-methoxy-3,6-dimethyl-11-(pyrrolidin-1-yl)-1,2,3,4,5,6-hexahydro-2,6-methanobenzo[d]azocine] | > 20 µM | 24.3 ± 2.96% | 19.8 µM | – | – |
| CN1CC[C@]2(C)c3cc(O)ccc3CC1[C@@H]2CC(=O)Nc1ccccc1C(=O)O [Compound 35, 2-(2-((6S,11R)-8-hydroxy-3,6-dimethyl-1,2,3,4,5,6-hexahydro-2,6-methanobenzo[d]azocin-11-yl)acetamido)benzoic acid] | 2.57 ± 0.783 µM | 23 ± 0.58% | – | > 20 µM | – |
| COC(=O)c1cccc([C@]2(O)C3Cc4ccc(OC)cc4[C@@]2(C)CCN3C)c1 [Compound 62, methyl 3-((6R,11R)-11-hydroxy-8-methoxy-3,6-dimethyl-1,2,3,4,5,6-hexahydro-2,6-methanobenzo[d]azocin-11-yl)benzoate] | 7.45 ± 0.47 µM | 24 ± 2.97% | – | > 20 µM | – |
| COc1ccc2c(c1)[C@@]1(C)CCN(C)C(C2)[C@@H]1c1cccc(-c2nnn[nH]2)c1 [Compound 42, (6S,11R)-11-(3-(1H-tetrazol-5-yl)phenyl)-8-methoxy-3,6-dimethyl-1,2,3,4,5,6-hexahydro-2,6-methanobenzo[d]azocine] | > 20 µM | – | – | > 20 µM | – |
| CN1CC[C@]2(C)c3cc(O)ccc3CC1[C@@H]2COc1cccc(C(=O)O)c1 [Compound 40, 3-(((6S,11R)-8-hydroxy-3,6-dimethyl-1,2,3,4,5,6-hexahydro-2,6-methanobenzo[d]azocin-11-yl)methoxy)benzoic acid] | 3.07 ± 0.469 µM | 25.7 ± 3.76% | 3.12 ± 0.483 µM | – | – |
| CN1CC[C@]2(C)c3cc(O)ccc3CC1C2N(C)C(=O)Nc1ccc(C(=O)O)cc1 (stereo in doubt) [Compound 46, 4-(3-((2R,6R,11R)-8-hydroxy-3,6-dimethyl-1,2,3,4,5,6-hexahydro-2,6-methanobenzo[d]azocin-11-yl)-3-methylureido)benzoic acid] | 13.4 ± 2.99 µM | 36.7 ± 3.18% | – | > 20 µM | – |
| COc1ccc2c(c1)[C@@]1(C)CCN(C)C(C2)[C@@H]1c1cccc(C#N)c1 [Compound 36, 3-((6S,11R)-8-methoxy-3,6-dimethyl-1,2,3,4,5,6-hexahydro-2,6-methanobenzo[d]azocin-11-yl)benzonitrile] | > 20 µM | – | 4.19 ± 1.05 µM | – | – |
| CN1CC[C@]2(C)c3cc(O)ccc3C[C@@H]1[C@@H]2N(C)C(=O)c1ccc(C(=O)O)cc1 [Compound 59, 4-(((2R,6R,11R)-8-hydroxy-3,6-dimethyl-1,2,3,4,5,6-hexahydro-2,6-methanobenzo[d]azocin-11-yl)(methyl)carbamoyl)benzoic acid] | 3.44 ± 0.183 µM | 76.3 ± 10.2% | – | > 20 µM | – |
| CN1CC[C@]2(C)c3cc(O)ccc3CC1[C@@H]2CC(=O)N1CCC(C(=O)O)CC1 [Compound 72, 1-(2-((6S,11R)-8-hydroxy-3,6-dimethyl-1,2,3,4,5,6-hexahydro-2,6-methanobenzo[d]azocin-11-yl)acetyl)piperidine-4-carboxylic acid] | 4.89 ± 0.508 µM | 70.3 ± 8.33% | 14.8 µM | – | – |
